# Measurements as given in paper PMC12377202, “Design, synthesis, and cytotoxic evaluation of quinazoline-based derivatives as VEGER-2 inhibitors: comparative study against EGFR kinase activity, induction of apoptosis, and molecular docking study” (RSC Advances, 2025).
# Columns and labels:
# Assay type in all cases: cell-based, human
# HepG-2 = test: MTT anti-proliferative assay, HepG-2; conditions: Homo sapiens
# HEK-293 = test: MTT cytotoxicity against normal cells
# [1] = MTT cytotoxicity against normal cells; conditions: human, HEK-293 cells (normal human embryonic kidney)
# K-562 = test: MTT anti-proliferative assay, K-562; conditions: Homo sapiens, K562
# MCF-7 = test: MTT anti-proliferative assay, MCF-7; conditions: Homo sapiens
compound,measurement,setting,value
"CNC(=O)c1cc(Oc2ccc(NC(=O)Nc3ccc(Cl)c(C(F)(F)F)c3)cc2)ccn1 [Sorafenib, sorafenib, reference compound]",viability at 78 µM,"HepG-2; HepG2, 0.078 umol/ml",51.7%
same,cytotoxicity at 0.078 µM,"HepG-2; HepG2, 0.078 umol/ml, read-out: Toxicity %",48.3%
same,viability at 0.313 µM,"HepG-2; HepG2, 0.313 umol/ml",16.5%
same,viability at 0.625 µM,"HepG-2; HepG2, 0.625 umol/ml",11.1%
same,cytotoxicity at 2500 µM,"HepG-2; HepG2, 2.5 umol/ml, read-out: Toxicity %",92.1%
same,cytotoxicity at 10000 µM,"HepG-2; HepG2, 10 umol/ml, read-out: Toxicity %",93.1%
same,Toxicity %,"HEK-293; HEK-293, 0.078 umol/ml",30.65%
same,Toxicity %,"HEK-293; HEK-293, 0.156 umol/ml",59.15%
same,Toxicity %,"HEK-293; HEK-293, 0.313 umol/ml",69.11%
same,Toxicity %,"HEK-293; HEK-293, 0.625 umol/ml",82.43%
same,Toxicity %,"HEK-293; HEK-293, 1.25 umol/ml",86.92%
same,Toxicity %,"HEK-293; HEK-293, 2.5 umol/ml",89.65%
same,Toxicity %,"HEK-293; HEK-293, 10 umol/ml",93.7%
same,Toxicity %,"HEK-293; HEK-293, 50 umol/ml",91.36%
same,IC50,"HEK-293; Homo sapiens, HEK293, raw data, HEK-293",131000 nM
same,"viability at 3 days, 0.078 umol/ml","[1]; HEK-293, 0.078 umol/ml",69.4%
same,"viability at 3 days, 0.156 umol/ml","[1]; HEK-293, 0.156 umol/ml",40.8%
same,"viability at 3 days, 0.313 umol/ml","[1]; HEK-293, 0.313 umol/ml",30.9%
same,"viability at 3 days, 0.625 umol/ml","[1]; HEK-293, 0.625 umol/ml",17.6%
same,"viability at 3 days, 1.25 umol/ml","[1]; HEK-293, 1.25 umol/ml",13.1%
same,"viability at 3 days, 2.5 umol/ml","[1]; HEK-293, 2.5 umol/ml",10.3%
same,"viability at 3 days, 10 umol/ml","[1]; HEK-293, 10 umol/ml",6.3%
same,"viability at 3 days, 50 umol/ml","[1]; HEK-293, 50 umol/ml",8.64%
same,viability at 78 µM,"K-562; K-562, 0.078 umol/ml",38.9%
same,cytotoxicity at 78 µM,"K-562; K-562, 0.078 umol/ml, read-out: Toxicity %",61.1%
same,viability at 0.313 µM,"K-562; K-562, 0.313 umol/ml",12.3%
same,viability at 0.625 µM,"K-562; K-562, 0.625 umol/ml",9.18%
same,cytotoxicity at 2500 µM,"K-562; K-562, 2.5 umol/ml, read-out: Toxicity %",92.1%
same,cytotoxicity at 10000 µM,"K-562; K-562, 10 umol/ml, read-out: Toxicity %",92.9%
same,IC50,"K-562; MTT, K-562, read-out: Cytotoxicity against cancer cells IC50 K-562",60.6 ± 2.6 nM
same,IC50,"MCF-7; MCF7, MTT, MCF-7, read-out: Cytotoxicity against cancer cells IC50 MCF-7",128 ± 3.1 nM
same,viability at 78 µM,"MCF-7; MCF7, 0.078 umol/ml",71.5%
same,cytotoxicity at 78 µM,"MCF-7; MCF7, 0.078 umol/ml, read-out: Toxicity %",28.5%
same,viability,"MCF-7; MCF7, 0.313 umol/ml",25.7%
same,cytotoxicity at 0.313 µM,"MCF-7; MCF7, 0.313 umol/ml, read-out: Toxicity %",74.3%
same,viability,"MCF-7; MCF7, 0.625 umol/ml",16.1%
same,cytotoxicity at 2500 µM,"MCF-7; MCF7, 2.5 umol/ml, read-out: Toxicity %",89.1%
same,cytotoxicity at 10000 µM,"MCF-7; MCF7, 10 umol/ml, read-out: Toxicity %",91.8%
